Test results published in patent US20130190345A1, “MATRINIC ACID/MATRINE DERIVATIVES AND PREPARATION METHODS AND USES THEREOF” (priority 2010, published 2013).
In brackets after ≈: the same amount, converted by molar mass.

Assays:
wild type HBV = assay: Inhibition effects on wild type HBV (Real-time PCR of HBV DNA, Huh-7.5 cells); format: cell-based; conditions: 36 h; lamivudine 0.16n/mL, compound 6b 37 μg/mL
Experimental: (§1) Lamivudine-resistant strain (LRS M204V L180M) was used to transfect Huh-7.5 cells, lamivudine was used as positive control, lamivudine (0.16n/mL) and compound 6b (37 μg/mL) were separately used to treat wild type and LRS type HBV, after 36 h, Real-time PCR was used to determine HBV DNA levels, respectively, and the results were shown in FIG. 12.

[1] = test system: Lamivudine-resistant strain (LRS M204V L180M) HBV; assay: Inhibition effects on drug resistant type HBV (Real-time PCR of HBV DNA, Huh-7.5 cells); format: cell-based; conditions: 36 h; lamivudine 0.16n/mL, compound 6b 37 μg/mL
Experimental: as §1

Hsc70 [2] = assay: Detection of Hsc70 gene expression level upon action of compound on 2.2.15 cells (real-time fluorescent quantified PCR); format: cell-based; set-up: Hsc70 mRNA / Hsc70 down-regulation rate (%): unit not given here; conditions: 2.2.15 cells
In short: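 2.2.15 cells grown 24 hr in 10% FCS medium, then exposed to compounds (20 mg/ml MEM stock diluted in medium) for 12, 24 or 36 hr; 400 μg/ml OMTR as control. Hsc70 mRNA and HBV DNA changes measured by real-time fluorescent quantitative PCR.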

Hsc70 [3] = assay: Inhibition effects of compound on Hsc70 in Huh7.5 cultured cell (qRT-PCR, Western blotting); format: cell-based; set-up: key to Hsc70 down-regulation rate (%): “—” represents no significant inhibition rate
Experimental: 2×10^5/ml Huh7.5 cells (purchased from Vertex Pharmaceutical Co., USA) were inoculated in an amount of 3 ml on 6-well culture plate, placed in an incubator with 37° C., 5% CO2 content, saturation humidity, and cultured for 24 h, added with different drug solutions (DM122) formulated with culture medium, and cell control was set. Cultivation was continuously performed in the incubator with 37° C., 5% CO2 content, saturation humidity for 24 h, a kit for RNA extraction was used to extract intracellular RNA from the cells, and one-step qRT-PCR was used to determine intracellular contents of Hsc70 and GAPDHRNA. After the cultivation of cells was performed for 48 h, the cells were digested and harvested, then the cells were split with CytoBuster™ Protein Extraction Buffer that contained many kinds of protease inhibitors, total intracellular proteins were extracted, and Western blotting was used to analyze the contents of Hsc70 and GAPDH proteins. In comparison with the cell control, the inhibition effects on Hsc70 upon action of different drugs were analyzed.

HCV = assay: Inhibition effects of compounds on HCV in Huh7.5 cultured cell after HCV infection; format: cell-based
In short: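 Huh7.5 cells, cultured 24 h, were infected with HCV at 45 IU/cell and given drug in medium for 72 h at 37° C. Intracellular HCV and GAPDH RNA quantified by one-step qRT-PCR, with inhibition analysed against virus control; three repeats.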

2.2.15 cells = assay: Drug TC50 by MTT detection; format: cell-based; conditions: Reed-Muench
Experimental: 2.2.15 cells (all cells were purchased from Vertex Pharmaceutical Co., USA) in exponential growth phase were inoculated on 96-well culture plate, 2×10^5 cells/well, added with culture media containing PFA diluted in different concentration rates, 3 wells for each diluted concentration, placed in 37° C. CO2—containing incubator and cultivated for 48 h; the supernatant was discarded, 100 μl of MTT (0.5 mg/ml) in culture medium was added, cultivation was continuously performed at 37° C. for 4 h; each well was added to 100 μl of 50% DMF-20% SDS destaining solution, stood at 37° C. overnight; ELISA was used to measure optical density at wavelength of 570 nm (0D570).
In each experiment, 3 cell control wells and 3 blank controls well were set, the results were used in formula, (cell control OD570-drug-medicated cell OD570)/cell control OD570, to calculate cell death rate (%), and Reed-Muench method was used to calculate half toxic concentration TC50.

DHBV = DHBV animal test; format: in vivo, Peking ducks
Experimental: Infection and administration: Peking ducks (purchased from Institute of Animals, Chinese Academy of Medical Sciences) were infected via foot vein with 0.2 ml DHBV positive serum. […] The control group was administered with physiological saline (1 ml); positive control was administered with 3TC (lamivudine), in dose of 50 mg/kg (5 mg/ml, 1 ml).

Hsc70 [4] = assay: Hsc70 protein in virus particles in supernatant from HCV-infected Huh7.5 cultured cell liquid; format: cell-based; conditions: HCV-infected Huh7.5 cells, 96 h, Western blotting (FIG. 8)
Experimental: Huh7.5 cells were inoculated in an amount of 3×10^4/cm^2, cultured in 10 cm culture dish (58.1 cm^2/well) for 6 h, infected with HCV and simultaneously added with DM-122 drug solutions with different concentration and positive control Intron A, after action for 96 h, the supernatant from cultured cell liquid was subjected to ultra-high speed centrifugation to separate virus particles, Western blotting was used to analyze the contents of Hsc70 and GAPDH proteins in virus particles.

[5] = Acute toxicity of compound in mice; format: in vivo
Experimental: Kunming mice (purchased from Institute of Animal, Chinese Academy of Medical Sciences), 18-20 g, were weighed and randomly divided in groups, 10 mice per group, half male and half female, intraperitoneally injected with DM122 solution, in concentration of 0, 250 mg/kg, 500 mg/kg and 1000 mg/kg once. The death of animals was observed. On the 7th day, the animals were weighed, blood samples were taken and functional indexes (GOT, GPT, BUN and CRE) of liver and kidney in blood were determined.
Since Compound 6b had relatively high activity on anti-HBV and anti-HCV. The inventors had used it as a candidate of anti-hepatitis drug to evaluate its safety in animal body. Kunming mice were used for test of safety and acute toxicity of Compound 6b (13-methoxy matrine), via oral administration, administration doses were separately 250, 500 and 750 mg/kg once, then the mice were strictly monitored for 7 days.

Structure (SMILES): Nc1ccn([C@@H]2CS[C@H](CO)O2)c(=O)n1 [lamivudine, reference compound]
- inhibition rate on wild type HBV (wild type HBV): 64%
- inhibition rate on drug-resistant HBV [1]: 28%

Structure (SMILES): COc1ccc(CN2CC3CCCN4CCCC(C2CCCC(=O)O)C34)cc1 (stereo not drawn) [DM-122, N-(4-methoxybenzyl) matrinic acid]
- Hsc70 inhibition rate (down-regulation of Hsc70 expression activity, expressed in relative OMT ratio) (Hsc70 [2]; relative to OMT (= 1)): 1.56
- Hsc70 down-regulation rate (%) (Hsc70 [3]; 200 ug/ml (upper data)): 36.8 ± 1.4%
- Hsc70 down-regulation rate (%) (Hsc70 [3]; 400 ug/ml (lower data)): —
- inhibition of intracellular Hsc70 mRNA (Hsc70 [3]; Huh7.5 cells, 24 h, qRT-PCR (FIG. 4)): dose-dependent inhibition effects
- inhibition of intracellular Hsc70 protein (Hsc70 [3]; Huh7.5 cells, 48 h, Western blotting (FIG. 5)): dose-dependent inhibition effects
- HCV inhibition rate (%) (HCV; 200 ug/ml (upper data)): 77.2 ± 4.8%
- HCV inhibition rate (%) (HCV; 400 ug/ml (lower data)): 88.0 ± 4.0%
- inhibition of intracellular HCV Core and Hsc70 proteins (HCV; HCV-infected Huh7.5 cells, 72 h, Western blotting (FIG. 7A)): dose-dependent inhibition effects
- effect on intracellular HCV RNA (HCV; HCV-infected Huh7.5 cells, 72 h, qRT-PCR (FIG. 6)): dose-dependent effects
- EC50 (half effective concentration) (HCV; virus not given, stands beside HCV inhibition rate): 252.35 mg/L (≈ 653 µM)
- CC50 (concentration to cause poisoning in half cells) (2.2.15 cells): >1000 mg/L
- HBVDNA in liver, inhibition rate (DHBV; duckling, oral 37.5 mg/kg twice per day, 15 days (FIG. 1)): −5.14%
- activity against hepatitis B virus in DHBV-infected ducks (HBV DNA in liver and serum) (DHBV; oral 150, 75, 37.5 mg/kg twice per day, 15 days): good activity against hepatitis B virus
- Hsc70 protein content in virus particles in supernatant (Hsc70 [4]): reduced the Hsc70 protein content in virus particles
- influence on body weight of mice ([5]; mouse, in vivo): no influence on body weight of mice
- influence on liver and kidney functions (GOT, GPT, BUN, CRE) ([5]; mouse, in vivo, ip): no influence on liver and kidney functions

Structure (SMILES): CCOC1CC(=O)N2CC3CCCN4CCCC(C34)C2C1 (stereo not drawn) [Compound 6b, 13-ethoxy matrine]
- Hsc70 mRNA (Hsc70 [2]; down-regulation of liver cell Hsc70 gene): 74.1 ± 0.11
- anti-HCV activity (HCV nucleoprotein and Hsc70 protein levels) (HCV; HCV-infected Huh7.5 cells, 200 μg/mL, Western blotting (FIG. 7B)): significant activity on anti-HCV
- activity against HCV (HCV RNA level) (HCV; HCV-infected Huh7.5 cells, 200 μg/mL, real-time RT-PCR): best activity against HCV
- oral LD50 ([5]; mice, oral administration once): greater than 1000 mg/kg
- death of mice ([5]; oral once, 250, 500 and 750 mg/kg): no mouse died
- change of bodyweight ([5]; oral once, 250, 500 and 750 mg/kg (FIG. 11A)): no significant change of bodyweight
- AST, ALT, BUN and CRE indexes in blood ([5]; oral, 750 mg/kg dose group (FIG. 11B)): no significant abnormality
- inhibition rate on wild type HBV (wild type HBV): 35%
- inhibition rate on drug-resistant HBV [1]: 32%
